In a melting point compilation (Tetko et al.; mined from patent text by program, amines drawn as free bases though some values may be those of a salt):

melting point [°C] | SMILES
60 to 72 | Cc1ccc(C)c(Oc2ccc(C#N)cc2S(=O)(=O)N2CCNCC2)c1
148 to 149 | CC(C)OC1C=CC(=O)N1S(=O)(=O)c1ccccc1 (stereo unspecified)
244 to 245 | Nc1ccc(S(=O)(=O)c2cc(Br)nc(N3CCOCC3)c2)cc1
183 to 184 | COCN(c1cccc2cc(C(=O)O)n(COC)c12)S(=O)(=O)c1cccs1
143 | COc1ccc(CNc2nc(CCCC(=O)O)nc3[nH]c4ccccc4c23)cc1Cl
100 to 113 | O=S(=O)(c1ccccc1)c1ccc2c(c1)NCC(C(F)F)(C(F)F)O2
157 to 158 | NC(=O)[C@@H]1CCCN1C(=O)/C=C/S(=O)(=O)c1ccccc1
86 to 88 | COc1ccc(C(C#Cc2ccccc2)CC(=O)O)cc1OC1CCCC1 (racemic)
153 | COC(=O)C(C(=O)OC)c1cc([N+](=O)[O-])ccc1C(=O)O
231 to 233 | O=C1c2cccc(O)c2Cc2cccc(O)c21
70 to 71 | CCOC(=O)CCc1cc(C(=O)c2ccc(C(=O)OCC)cc2)ccc1O
153 to 154 | O=C(CCCCCCc1ccccc1)c1c(O)c2cccnc2n(-c2ccccc2)c1=O
233 to 234 | NC(=O)c1sc(Nc2ccccc2)c2c1CCc1cn[nH]c1-2
195 to 197 | COc1cn(-c2ccncc2)nc(-c2ccnn2-c2ccccc2)c1=O
233 | COc1ccc(C=CC(=O)N2CCc3c([nH]c4ccccc34)C2c2ccc3c(c2)OCO3)cc1OC (stereo unspecified)
166 | COCCNc1ccnc2c(NC(=O)c3c(Cl)cccc3Cl)cccc12
158 to 160 | NNc1nc(-c2ccccc2)co1
150 to 151 | CCOC(=O)c1ccc(N(CCOc2ccc(C#N)c3ccccc23)C(=O)C(F)(F)F)cc1
77 to 79 | O=S(=O)(c1ccc(Cl)cc1)C(CCCCCCO)c1cc(F)ccc1F (stereo unspecified)

melting point [°C] | SMILES
76.5 to 77.5 | Cc1cccc(C(O)c2ocnc2C)c1 (stereo unspecified)
164 | Cn1c(-c2ccccc2S(=O)c2nc3ccccc3[nH]2)nc2ccccc21 (stereo unspecified)
115 to 116 | COC(=O)Cc1c(Cl)nc(C)nc1Nc1ccccc1
243 to 244 | CC(C)n1nc(-c2sc(NC(=O)COc3ccccc3)nc2-c2ccccc2)ccc1=O
140 to 142 | COc1ccc2cc(-c3ccc(OCC(O)CNC(C)C)cc3)n(C)c(=O)c2c1 (stereo unspecified)
205 | O=c1ccc2c([N+](=O)[O-])cccc2n1O
144 to 146 | CSC(=C[N+](=O)[O-])NCCCn1cc(C2=C(c3cn(C)c4ccccc34)C(=O)NC2=O)c2ccccc21
76 | CCCC(=O)Nc1ccccc1C(F)(F)F
188 | Cc1c(-c2ccc(OS(=O)(=O)NN(C)C)cc2)[nH]c2nccnc12
138 to 141 | COc1c(C)c(C)c(OCc2ccccc2)c(C)c1CN(C)CCOc1cc(C)ccc1C(C)C
126 to 128 | O=C1NCCSC1Cc1ccc(OCc2ccccc2)cc1 (stereo unspecified)
107 to 109 | CCOC(=O)NC(C(=O)OC)C(c1ccccc1)c1ccccc1 (stereo unspecified)
116 to 117 | CS(=O)(=O)CCCCC(c1cc(Cl)ccc1F)S(=O)(=O)c1ccc(Cl)cc1 (stereo unspecified)
270 | O=C(Oc1ccccc1)OC1C2=C(OCCS2)C(=O)N1c1ccc2ccc(Cl)nc2n1 (stereo unspecified)
154 | COc1ccc(S(=O)(=O)N2C(=O)C(c3ccccc3OC)(N3C[C@H](OCC(=O)NC(C)(CO)CO)C[C@H]3C(=O)N(C)C)c3cc(Cl)ccc32)c(OC)c1 (stereo partly specified)
242 to 246 | CNC(=O)Cc1c(C(=O)c2ccccc2)[nH]c2cc(Cl)ccc12
164 to 165 | CC(C)c1cccc(-n2c(C(=O)Nc3ccc4c(ccn4C)c3)cc3cc(OC(F)(F)F)ccc32)c1
309 to 310 | NS(=O)(=O)c1ccc(C2(c3nc4cc(F)ccc4[nH]3)C=C(C(F)(F)F)NN2)cc1 (stereo unspecified)

Further lines, the compound ahead of its results:

SMILES | melting point [°C]
COC(=O)C(C)Nc1c([N+](=O)[O-])cnn1-c1c(Cl)cc(C(F)(F)F)cc1Cl (stereo unspecified) | 123 to 130
CCCc1c2c(c3oc(C(=O)OC)cc(=O)c3c1OC)CCCC2 | 124
COc1nnc2n1-c1sc(CCC(=O)N3CCOCC3)cc1C(c1ccccc1Cl)=NC2 | 163 to 164
CC1(C)C(=O)Nc2ccc(-c3coc(C#N)c3)cc21 | 200 to 201
Cc1cc(C2=NNC(=O)Cc3cc4c(cc32)OCO4)ccc1[N+](=O)[O-] | 275 to 277
Brc1ccc2c(CCN3CCCCC3)c(-c3ccccc3)[nH]c2c1 | > 230
CN(CCOc1ccc(OC(F)(F)F)cc1)CC1(C)Cn2cc([N+](=O)[O-])nc2O1 (stereo unspecified) | 86.4 to 89.2
Clc1nnc(Cl)c2c1CCCC2 | 148 to 150
Cc1oc(-c2ccccc2)nc1COc1ccc(COc2ccc(OCc3ccccc3)cc2CC(=O)O)cc1 | 140 to 141
Cc1nnc(-c2cc(O)c(O)c([N+](=O)[O-])c2)o1 | 245 to 246
Cc1nc2nc3cc(Cl)ccc3nc2[nH]1 | > 300
Cc1cc(-n2cnnn2)cc(I)c1N | 172 to 175
N=C(N)Nc1nc(-c2csc(N)n2)cs1 | 274
CNC(=O)CC1N=C(C2CCCCC2)c2c(sc(C)c2C)-n2c(C)nnc21 (stereo unspecified) | 228 to 231
Cc1cc(N2CC=CCC2)nn2cnnc12 | 103 to 106
NC(=O)[C@@H]1C[C@H](F)CN1C(=O)CCl | 95 to 96
O=C(O)c1cnn(-c2ccc(F)cc2)c1Cl | 230 to 231

SMILES | melting point [°C]
CC1CCN(c2ccc([N+](=O)[O-])cc2C(=O)c2ccc(Cl)c(Cl)c2)CC1 | 116
Cc1nc2cc(C34CC5CC(CC(C5)C3)C4)cc(-c3cccc(C=C4SC(=S)NC4=O)c3)c2o1 | 310
CC(=O)SC1NC(=O)C1C (stereo unspecified) | 53 to 65
COC(=O)Nc1ccc(-c2ncn(-c3ccc(OC(F)(F)C(F)(F)F)cc3)n2)cc1 | 183 to 184
Fc1ccc(Cn2cnc3c(-c4ccco4)nc(Cl)nc32)cc1 | 152 to 155
O=C(O)CCCN(Cc1cccc(Cl)c1)Cc1cccc(Cl)c1 | 170 to 173
COc1cc(CNC(=O)c2ccc(Cl)cc2OCC(=O)O)cc(OC)c1 | 163
CCOc1cc(Cl)ccc1-c1nc2n(C3CCCC3)[nH]c(CC)c-2c(=O)n1 | 185 to 187
Sc1nnc(-c2cccnc2)o1 | 237
O=C(/C=C/c1c[nH]c2ccc(O)cc12)c1ccncc1 | 262 to 268
CCOC(=O)c1cn(C2CC2)c2c(F)c(CCc3cc(Cc4cnc(N)nc4N)cc(OC)c3OC)c(F)cc2c1=O | 218 to 220
CN(C(=O)C(=O)c1cn(Cc2ccc(Cl)cc2)c2ccccc12)C1=CC(=O)OC1 | 205 to 208
CCOC(=O)c1ccc(NCCCOc2ccc(Cl)cc2)cc1 | 87 to 88
Cc1cc2c(cc1F)N(C(=O)Nc1cccnc1)CC2 | 203 to 205
OCc1cn(-c2ccc(Cl)cn2)cn1 | 82 to 87
O=[N+]([O-])c1ccc(C2=NNC(=S)Cc3cc4c(cc32)OCO4)cc1 | 257 to 258
CC1CCCCC1C(=O)Nc1ccc(-c2cnc(-c3ccc(NC(=O)C4CCCCC4)cc3)[nH]2)cc1 (stereo unspecified) | 221 to 223
